For test [1], the target named is T1, HCV NS3/4A protease complex, BMS strain (UniProt P27958, C1454S/C1711G, species not given).
T1 construct: other: HCV NS3/4A enzyme assay; class symbols; numeric values; fused on or other part: three-lysine solubilising tail at the C-terminus of NS4A; purified on Ni-NTA from the pET21b vector (His tag implied)
Put plainly: FRET peptide assay to monitor HCV NS3/4A proteolytic activity (BMS strain). Type of test: biochemical, HCV genotype 1a. The note with it: read-out: IC50 Range, HCV NS3/4A enzyme assay. An excerpt: HCV NS3 protease complexes, derived from the BMS strain, H77 strain or J4L6S strain, were generated, as described below. These purified recombinant proteins were generated for use in a homogeneous assay (see below) to provide an indication of how effective compounds of the present disclosure would be in inhibiting HCV NS3 proteolytic activity.
Serum from an HCV-infected patient was obtained from Dr. T. Wright, San Francisco Hospital. An engineered full-length cDNA (compliment deoxyribonucleic acid) template of the HCV genome (BMS strain) was constructed from DNA fragments obtained by reverse transcription-PCR (RT-PCR) of serum RNA (ribonucleic acid) and using primers selected on the basis of homology between other genotype 1a strains. From the determination of the entire genome sequence, a genotype 1a was assigned to the HCV isolate according to the classification of Simmonds et al. (See P Simmonds, K A Rose, S Graham, S W Chan, F McOmish, B C Dow, E A Follett, P L Yap and H Marsden, J. Clin. Microbiol., 31(6), 1493-1503 (1993)). […] The infectious clones, H77 (1a genotype) and J4L6S (1b genotype) were obtained from R. Purcell (NIH) and the sequences are published in Genbank (AAB67036, see Yanagi, M., Purcell, R. H., Emerson, S. U. and Buldi, J. Proc. Natl. Acad. Sci. U.S.A. 94(16),8738-8743 (1997); AF054247, see Yanagi, M., St Claire, M., Shapiro, M., Emerson, S. U., Purcell, R. H. and Bukh, J, Virology 244 (1), 161-172. (1998)).
NS3/4A protease complex-containing fractions were pooled and loaded on a desalting column Superdex-S200 pre-equilibrated with buffer D (25 mM HEPES, pH 7.5, 20% glycerol, 300 mM NaCl, 0.2% TritonX-100, 10 mM βMB). Sample was loaded at a flow rate of 1 mL/min. NS3/4A protease complex-containing fractions were pooled and concentrated to approximately 0.5 mg/ml. The purity of the NS3/4A protease complexes, derived from the BMS, H77 and J4L6S strains, were judged to be greater than 90% by SDS-PAGE and mass spectrometry analyses. The enzyme was stored at −80° C., thawed on ice and diluted prior to use in assay buffer.
The purpose of this in vitro assay was to measure the inhibition of HCV NS3 protease complexes, derived from the BMS strain, H77 strain or J4L6S strain, as described above, by compounds of the present disclosure. This assay provides an indication of how effective compounds of the present disclosure would be in inhibiting HCV NS3 proteolytic activity.
In order to monitor HCV NS3/4A protease activity, an NS3/4A peptide substrate was used. The substrate was RET S1 (Resonance Energy Transfer Depsipeptide Substrate; AnaSpec, Inc. cat #22991)(FRET peptide), described by Taliani et al. in Anal. Biochem. 240(2):60-67 (1996). The sequence of this peptide is loosely based on the NS4A/NS4B natural cleavage site for the HCV NS3 protease except there is an ester linkage rather than an amide bond at the cleavage site. The peptide also contains a fluorescence donor, EDANS, near one end of the peptide and an acceptor, DABCYL, near the other end. The fluorescence of the peptide is quenched by […] resonance energy transfer (RET) between the donor and the acceptor, but as the NS3 protease cleaves the peptide the products are released from RET quenching and the fluorescence of the donor becomes apparent.
The peptide substrate was incubated with one of the three recombinant NS3/4A protease complexes, in the absence or presence of a compound of the present disclosure. The inhibitory effects of a compound were determined by monitoring the formation of fluorescent reaction product in real time using a Cytofluor Series 4000.
Assay buffer: 50 mM HEPES, pH 7.5; 0.15 M NaCl; 0.1% Triton; 15% Glycerol; 10 mM βME. Substrate: 2 μM final concentration (from a 2 mM stock solution in DMSO stored at −20° C.). HCV NS3/4A protease type 1a (1b), 2-3 nM final concentration (from a 5 μM stock solution in 25 mM HEPES, pH 7.5, 20% glycerol, 300 mM NaCl, 0.2% Triton-X100, 10 mM βME). […]

In test [2] the test system is HCV replicon in HUH-7 cells. Put plainly: HCV replicon FRET assay. Type of test: cell-based, HCV strain 1b. The note with it: Hepatitis C virus. An excerpt: An HCV replicon whole cell system was established as described by Lohmann V, Korner F, Koch J, Herian U, Theilmann L, Bartenschlager R., Science 285(5424):110-3 (1999). This system enabled us to evaluate the effects of our HCV Protease compounds on HCV RNA replication. Briefly, using the HCV strain 1b sequence described in the Lohmann paper (Assession number:AJ238799), an HCV cDNA was synthesized by Operon Technologies, Inc. (Alameda, Calif.), and the full-length replicon was then assembled in plasmid pGem9zf(+) (Promega, Madison, Wis.) using standard molecular biology techniques. The replicon consists of (i) the HCV 5′ UTR fused to the first 12 amino acids of the capsid protein, (ii) the neomycin phosphotransferase gene (neo), (iii) the IRES from encephalomyocarditis virus (EMCV), and (iv) HCV NS3 to NS5B genes and the HCV 3′ UTR. Plasmid DNAs were linearized with ScaI and RNA transcripts were synthesized in vitro using the T7 MegaScript transcription kit (Ambion, Austin, Tex.) according to manufacturer's directions. In vitro transcripts of the eDNA were transfected into the human hepatoma cell line, HUH-7. […] Resulting cell lines were characterized for positive and negative strand RNA production and protein production over time.
The HCV replicon FRET assay was developed to monitor the inhibitory effects of compounds described in the disclosure on HCV viral replication. HUH-7 cells, constitutively expressing the HCV replicon, were grown in Dulbecco's Modified Eagle Media (DMEM) (Gibco-BRL) containing 10% Fetal calf serum (FCS) (Sigma) and 1 mg/ml G418 (Gibco-BRL). Cells were seeded the night before (1.5×10^4 cells/well) in 96-well tissue-culture sterile plates. Compound and no compound controls were prepared in DMEM containing 4% FCS, 1:100 Penicillin/Streptomysin (Gibco-BRL), 1:100 L-glutamine and 5% DMSO in the dilution plate (0.5% DMSO final concentration in the assay). Compound/DMSO mixes were added to the cells and incubated for 4 days at 37° C. After 4 days, cells were first assessed for cytotoxicity using alamar Blue (Trek Diagnotstic Systems) for a CC50 reading. The toxicity of compound (CC50) was determined by adding 1/10th volume of alamar Blue to the media incubating the cells. After 4 h, the fluorescence signal from each well was read, with an excitation wavelength at 530 nm and an emission wavelength of 580 nm, using the Cytofluor Series 4000 (Perspective Biosystems). Plates were then rinsed thoroughly with Phosphate-Buffered Saline (PBS) (3 times 150 μl).
On the technique in general: Replicon systems follow genome replication, usually without infectious particles.

We go through 16 molecules from patent US8163921B2, “Hepatitis C virus inhibitors” (Bristol-Myers Squibb Company, priority 2008, dated 2012).

As usually defined, the IC50 is the concentration needed to halve the response being measured. By EC50 is commonly meant the concentration needed to bring the measured effect to its halfway point.

Where two headings read alike, the source gives them in different places.

As to `C=C[C@@H]1C[C@]1(NC(=O)[C@@H]1C[C@@H](Oc2ncc(OC)c3ccc(Cl)cc23)CN1C(=O)C(Nc1ccc(-c2ccccc2)c(OC)c1)C(C)(C)C)C(=O)NS(=O)(=O)C1CC1` (single isomer, unassigned) [Example 18A], in test [1] (numeric values), the IC50 was 54 nM. In addition, in test [2] (Huh-7, HCV replicon cell assay, numeric values, read-out: EC50 Range), the EC50 is 78.1 nM.

With `C=C[C@@H]1C[C@]1(NC(=O)[C@@H]1C[C@@H](Oc2cc(-c3ccccc3)nc3cc(OC)ccc23)CN1C(=O)[C@@H](Nc1nc(-c2ccccc2)cs1)C(C)(C)C)C(=O)NS(=O)(=O)C1CC1` [Example 1], the half-maximal inhibitory concentration (IC50) in test [1] (class symbols) lay within 1 to 20 nM. Moreover, the EC50 in test [2] (Huh-7, read-out: EC50 Range) was in the range of 1 to 50 nM.

As to `C=C[C@@H]1C[C@]1(NC(=O)[C@@H]1C[C@@H](Oc2cc(-c3ccccc3)nc3cc(OC)ccc23)CN1C(=O)[C@@H](Nc1nc(-c2ccccc2OC)cs1)C(C)(C)C)C(=O)NS(=O)(=O)C1CC1` [Example 2], the IC50 in test [1] (class symbols) lay in the range of 1 to 20 nM. Further, the EC50 in test [2] (Huh-7, read-out: EC50 Range) was in the range of 1 to 50 nM.

On to `C=C[C@@H]1C[C@]1(NC(=O)[C@@H]1C[C@@H](Oc2cc(-c3ccccc3)nc3cc(OC)ccc23)CN1C(=O)[C@@H](Nc1nc(-c2cccc(OC)c2)cs1)C(C)(C)C)C(=O)NS(=O)(=O)C1CC1` [Example 3], for which the IC50 in test [1] (class symbols) lay within 1 to 20 nM. The EC50 in test [2] (Huh-7, read-out: EC50 Range) fell in the range of 1 to 50 nM.

On to `C=C[C@@H]1C[C@]1(NC(=O)[C@@H]1C[C@@H](Oc2cc(-c3ccccc3)nc3cc(OC)ccc23)CN1C(=O)[C@@H](Nc1nc(-c2ccc(OC)cc2)cs1)C(C)(C)C)C(=O)NS(=O)(=O)C1CC1` [Example 4], for which the IC50 in test [1] (class symbols) lay within 1 to 20 nM. Besides, the EC50 in test [2] (Huh-7, read-out: EC50 Range) was 1 to 50 nM.

On to `C=C[C@@H]1C[C@]1(NC(=O)[C@@H]1C[C@@H](Oc2cc(-c3ccccc3)nc3cc(OC)ccc23)CN1C(=O)[C@@H](Nc1nc(-c2ccc(F)cc2)cs1)C(C)(C)C)C(=O)NS(=O)(=O)C1CC1` [Example 5], for which the IC50 in test [1] (class symbols) lay within 1 to 20 nM. In addition, in test [2] (Huh-7, read-out: EC50 Range), the EC50 lay within 1 to 50 nM.

In the case of `C=C[C@@H]1C[C@]1(NC(=O)[C@@H]1C[C@@H](Oc2ncc(OC)c3ccc(Cl)cc23)CN1C(=O)[C@@H](Nc1nc(-c2ccc(F)c(F)c2)cs1)C(C)(C)C)C(=O)NS(=O)(=O)C1CC1` [Example 6, (2S,4R)-4-(7-chloro-4-methoxyisoquinolin-1-yloxy)-N-((1R,2S)-1-(cyclopropylsulfonylcarbamoyl)-2-vinylcyclopropyl)-1-((S)-2-(4-(3,4-difluorophenyl)thiazol-2-ylamino)-3,3-dimethylbutanoyl)pyrrolidine-2-carboxamide], the IC50 in test [1] (class symbols) was in the range of 1 to 20 nM. Also, in test [2] (Huh-7, read-out: EC50 Range), the EC50 was in the range of 1 to 50 nM.

As for `C=C[C@@H]1C[C@]1(NC(=O)[C@@H]1C[C@@H](Oc2ncc(OC)c3ccc(Cl)cc23)CN1C(=O)[C@@H](Nc1nc(-c2ccc(OC)cc2)cs1)C(C)(C)C)C(=O)NS(=O)(=O)C1CC1` [Example 7], in test [1] (class symbols), the IC50 is 1 to 20 nM. Besides, the EC50 in test [2] (Huh-7, read-out: EC50 Range) fell in the range of 1 to 50 nM.

With `C=C[C@@H]1C[C@]1(NC(=O)[C@@H]1C[C@@H](Oc2ncc(OC)c3ccc(Cl)cc23)CN1C(=O)[C@@H](Nc1nc(-c2ccc(OC(F)F)cc2)cs1)C(C)(C)C)C(=O)NS(=O)(=O)C1CC1` [Example 8], the IC50 in test [1] (class symbols) was 1 to 20 nM. For the same molecule, in test [2] (Huh-7, read-out: EC50 Range), the EC50 was 1 to 50 nM.

Regarding `C=C[C@@H]1C[C@]1(NC(=O)[C@@H]1C[C@@H](Oc2ncc(OC)c3ccc(Cl)cc23)CN1C(=O)[C@@H](Nc1nc(-c2cc(-c3ccc(Cl)cc3)no2)cs1)C(C)(C)C)C(=O)NS(=O)(=O)C1CC1` [Example 88], the IC50 in test [1] (class symbols) is 1 to 20 nM.

With `C=C[C@@H]1C[C@]1(NC(=O)[C@@H]1C[C@@H](Oc2ncc(OC)c3ccc(Cl)cc23)CN1C(=O)[C@@H](Nc1nc(-c2ccc(S(C)(=O)=O)cc2)cs1)C(C)(C)C)C(=O)NS(=O)(=O)C1CC1` [Example 89], the IC50 in test [1] (class symbols) was 1 to 20 nM.

For the molecule `C=C[C@@H]1C[C@]1(NC(=O)[C@@H]1C[C@@H](Oc2ncc(OC)c3ccc(Cl)cc23)CN1C(=O)[C@@H](Nc1nc(-c2sccc2Cl)cs1)C(C)(C)C)C(=O)NS(=O)(=O)C1CC1` [Example 90], in test [1] (class symbols), the IC50 fell in the range of 1 to 20 nM.

Take `C=C[C@@H]1C[C@]1(NC(=O)[C@@H]1C[C@@H](Oc2ncc(OC)c3ccc(Cl)cc23)CN1C(=O)[C@@H](Nc1nc(-c2ccc(Oc3ccccc3)cc2)cs1)C(C)(C)C)C(=O)NS(=O)(=O)C1CC1` [Example 91]: the IC50 in test [1] (class symbols) lay within 1 to 20 nM.

Regarding `C=C[C@@H]1C[C@]1(NC(=O)[C@@H]1C[C@@H](Oc2ncc(OC)c3ccc(Cl)cc23)CN1C(=O)[C@@H](Nc1nc(-c2cccc(C(F)(F)F)c2)cs1)C(C)(C)C)C(=O)NS(=O)(=O)C1CC1` [Example 94], the IC50 in test [1] (class symbols) lay within 1 to 20 nM.

`C=C[C@@H]1C[C@]1(NC(=O)[C@@H]1C[C@@H](Oc2ncc(OC)c3ccc(Cl)cc23)CN1C(=O)[C@@H](Nc1nc(-c2ccccc2C(F)(F)F)cs1)C(C)(C)C)C(=O)NS(=O)(=O)C1CC1` [Example 95]: the IC50 in test [1] (numeric values) is 17 nM.

For `C=C[C@@H]1C[C@]1(NC(=O)[C@@H]1C[C@@H](Oc2ncc(OC)c3ccc(Cl)cc23)CN1C(=O)[C@@H](Nc1nc(-c2nc3ccccc3s2)cs1)C(C)(C)C)C(=O)NS(=O)(=O)C1CC1` [Example 96], in test [1] (class symbols), the IC50 is 1 to 20 nM.
